Drawing on ChEMBL document CHEMBL5442219, this text covers inhibition for eleven compounds.

Conditions in all cases: Compound concentration 10 µM
Assay [1] has as its target Histamine H3 receptor (Homo sapiens) (UniProt Q9Y5N1).
Description: PDSP Primary Binding target: HRH3 - Compounds are tested at 10 uM concentration, plate are incubated at room temperature in the dark for 90 minutes. Reaction are stopped by vacuum filtration onto 0.3% polyethyleneimine soaked filter mats using Filtermate harvester. Scintilation cocktail is then melted onto microwave-dried filters on a hot plate and the radio activity is counted in Microbia counter.
Assay [2] has as its target T1, Alpha-1A adrenergic receptor (Homo sapiens) (UniProt P35348).
T1 sequence (whole entry): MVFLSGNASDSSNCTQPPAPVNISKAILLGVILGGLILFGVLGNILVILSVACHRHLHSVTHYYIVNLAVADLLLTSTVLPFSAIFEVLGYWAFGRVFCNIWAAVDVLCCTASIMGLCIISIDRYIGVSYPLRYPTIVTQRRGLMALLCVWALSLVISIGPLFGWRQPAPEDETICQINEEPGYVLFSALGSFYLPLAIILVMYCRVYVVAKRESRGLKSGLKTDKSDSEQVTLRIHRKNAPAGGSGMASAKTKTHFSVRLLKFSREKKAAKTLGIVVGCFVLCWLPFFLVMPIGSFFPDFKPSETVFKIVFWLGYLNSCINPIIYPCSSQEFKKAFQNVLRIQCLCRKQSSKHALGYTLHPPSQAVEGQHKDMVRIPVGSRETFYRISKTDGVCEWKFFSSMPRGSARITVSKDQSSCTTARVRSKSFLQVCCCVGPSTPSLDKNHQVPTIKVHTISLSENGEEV
Description: PDSP Primary Binding target: ADRA1A - Compounds are tested at 10 uM concentration, plate are incubated at room temperature in the dark for 90 minutes. Reaction are stopped by vacuum filtration onto 0.3% polyethyleneimine soaked filter mats using Filtermate harvester. Scintilation cocktail is then melted onto microwave-dried filters on a hot plate and the radio activity is counted in Microbia counter.

Assay [3] has as its target T2, Alpha-2C adrenergic receptor (Homo sapiens) (UniProt P18825).
T2 sequence (whole entry): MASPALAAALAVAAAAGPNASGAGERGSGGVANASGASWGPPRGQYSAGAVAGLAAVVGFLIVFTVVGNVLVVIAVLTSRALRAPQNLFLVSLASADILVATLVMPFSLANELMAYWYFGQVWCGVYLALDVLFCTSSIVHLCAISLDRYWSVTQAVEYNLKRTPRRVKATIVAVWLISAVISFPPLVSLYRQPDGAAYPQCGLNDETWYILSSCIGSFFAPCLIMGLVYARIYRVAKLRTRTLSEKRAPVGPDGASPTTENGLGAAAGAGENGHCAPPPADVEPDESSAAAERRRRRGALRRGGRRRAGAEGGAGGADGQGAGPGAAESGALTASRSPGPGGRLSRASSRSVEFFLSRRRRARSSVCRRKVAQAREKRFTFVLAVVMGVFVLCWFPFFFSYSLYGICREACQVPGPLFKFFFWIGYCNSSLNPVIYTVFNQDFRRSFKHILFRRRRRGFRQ
Description: PDSP Primary Binding target: ADRA2C - Compounds are tested at 10 uM concentration, plate are incubated at room temperature in the dark for 90 minutes. Reaction are stopped by vacuum filtration onto 0.3% polyethyleneimine soaked filter mats using Filtermate harvester. Scintilation cocktail is then melted onto microwave-dried filters on a hot plate and the radio activity is counted in Microbia counter.

Assay [4] concerns the target T3, 5-hydroxytryptamine receptor 3A (Homo sapiens) (UniProt P46098).
T3 sequence (whole entry): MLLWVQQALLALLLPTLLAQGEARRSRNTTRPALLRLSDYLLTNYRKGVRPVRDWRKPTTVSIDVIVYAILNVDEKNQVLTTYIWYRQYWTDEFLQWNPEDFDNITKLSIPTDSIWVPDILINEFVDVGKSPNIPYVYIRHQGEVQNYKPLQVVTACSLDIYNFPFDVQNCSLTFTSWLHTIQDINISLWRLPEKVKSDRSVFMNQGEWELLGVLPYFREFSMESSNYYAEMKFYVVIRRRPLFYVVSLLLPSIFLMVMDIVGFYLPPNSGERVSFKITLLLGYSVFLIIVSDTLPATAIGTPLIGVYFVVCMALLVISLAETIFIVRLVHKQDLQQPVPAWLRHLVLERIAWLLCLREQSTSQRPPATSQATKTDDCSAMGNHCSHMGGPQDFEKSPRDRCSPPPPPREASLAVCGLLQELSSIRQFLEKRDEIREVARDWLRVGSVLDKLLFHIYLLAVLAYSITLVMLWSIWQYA
Description: PDSP Primary Binding target: HTR3A - Compounds are tested at 10 uM concentration, plate are incubated at room temperature in the dark for 90 minutes. Reaction are stopped by vacuum filtration onto 0.3% polyethyleneimine soaked filter mats using Filtermate harvester. Scintilation cocktail is then melted onto microwave-dried filters on a hot plate and the radio activity is counted in Microbia counter.

The target in assay [5] is Translocator protein (Homo sapiens) (UniProt P30536).
Description: PDSP Primary Binding target: TSPO - Compounds are tested at 10 uM concentration, plate are incubated at room temperature in the dark for 90 minutes. Reaction are stopped by vacuum filtration onto 0.3% polyethyleneimine soaked filter mats using Filtermate harvester. Scintilation cocktail is then melted onto microwave-dried filters on a hot plate and the radio activity is counted in Microbia counter.
The target of assay [6] is 5-hydroxytryptamine receptor 2A (Homo sapiens) (UniProt P28223).
Description: PDSP Primary Binding target: HTR2A - Compounds are tested at 10 uM concentration, plate are incubated at room temperature in the dark for 90 minutes. Reaction are stopped by vacuum filtration onto 0.3% polyethyleneimine soaked filter mats using Filtermate harvester. Scintilation cocktail is then melted onto microwave-dried filters on a hot plate and the radio activity is counted in Microbia counter.
Assay [7] concerns the target Kappa-type opioid receptor (Homo sapiens) (UniProt P41145).
Description: PDSP Primary Binding target: OPRK1 - Compounds are tested at 10 uM concentration, plate are incubated at room temperature in the dark for 90 minutes. Reaction are stopped by vacuum filtration onto 0.3% polyethyleneimine soaked filter mats using Filtermate harvester. Scintilation cocktail is then melted onto microwave-dried filters on a hot plate and the radio activity is counted in Microbia counter.
Assay [8] addresses 5-hydroxytryptamine receptor 7 (Homo sapiens) (UniProt P34969).
Description: PDSP Primary Binding target: HTR7 - Compounds are tested at 10 uM concentration, plate are incubated at room temperature in the dark for 90 minutes. Reaction are stopped by vacuum filtration onto 0.3% polyethyleneimine soaked filter mats using Filtermate harvester. Scintilation cocktail is then melted onto microwave-dried filters on a hot plate and the radio activity is counted in Microbia counter.
Assay [9] deals with Sigma intracellular receptor 2 (Homo sapiens) (UniProt Q5BJF2).
Description: PDSP Primary Binding target: TMEM97 - Compounds are tested at 10 uM concentration, plate are incubated at room temperature in the dark for 90 minutes. Reaction are stopped by vacuum filtration onto 0.3% polyethyleneimine soaked filter mats using Filtermate harvester. Scintilation cocktail is then melted onto microwave-dried filters on a hot plate and the radio activity is counted in Microbia counter.
Assay [10] has as its target D(1A) dopamine receptor (Homo sapiens) (UniProt P21728).
Description: PDSP Primary Binding target: DRD1 - Compounds are tested at 10 uM concentration, plate are incubated at room temperature in the dark for 90 minutes. Reaction are stopped by vacuum filtration onto 0.3% polyethyleneimine soaked filter mats using Filtermate harvester. Scintilation cocktail is then melted onto microwave-dried filters on a hot plate and the radio activity is counted in Microbia counter.
The target of assay [11] is 5-hydroxytryptamine receptor 1E (Homo sapiens) (UniProt P28566).
Description: PDSP Primary Binding target: HTR1E - Compounds are tested at 10 uM concentration, plate are incubated at room temperature in the dark for 90 minutes. Reaction are stopped by vacuum filtration onto 0.3% polyethyleneimine soaked filter mats using Filtermate harvester. Scintilation cocktail is then melted onto microwave-dried filters on a hot plate and the radio activity is counted in Microbia counter.
Assay [12] concerns the target Beta-1 adrenergic receptor (Homo sapiens) (UniProt P08588).
Description: PDSP Primary Binding target: ADRB1 - Compounds are tested at 10 uM concentration, plate are incubated at room temperature in the dark for 90 minutes. Reaction are stopped by vacuum filtration onto 0.3% polyethyleneimine soaked filter mats using Filtermate harvester. Scintilation cocktail is then melted onto microwave-dried filters on a hot plate and the radio activity is counted in Microbia counter.
Assay [13] concerns the target 5-hydroxytryptamine receptor 1B (Homo sapiens) (UniProt P28222).
Description: PDSP Primary Binding target: HTR1B - Compounds are tested at 10 uM concentration, plate are incubated at room temperature in the dark for 90 minutes. Reaction are stopped by vacuum filtration onto 0.3% polyethyleneimine soaked filter mats using Filtermate harvester. Scintilation cocktail is then melted onto microwave-dried filters on a hot plate and the radio activity is counted in Microbia counter.
Assay [14] has as its target Sigma non-opioid intracellular receptor 1 (Homo sapiens) (UniProt Q99720).
Description: PDSP Primary Binding target: SIGMAR1 - Compounds are tested at 10 uM concentration, plate are incubated at room temperature in the dark for 90 minutes. Reaction are stopped by vacuum filtration onto 0.3% polyethyleneimine soaked filter mats using Filtermate harvester. Scintilation cocktail is then melted onto microwave-dried filters on a hot plate and the radio activity is counted in Microbia counter.
In assay [15] the target is 5-hydroxytryptamine receptor 6 (Homo sapiens) (UniProt P50406).
Description: PDSP Primary Binding target: HTR6 - Compounds are tested at 10 uM concentration, plate are incubated at room temperature in the dark for 90 minutes. Reaction are stopped by vacuum filtration onto 0.3% polyethyleneimine soaked filter mats using Filtermate harvester. Scintilation cocktail is then melted onto microwave-dried filters on a hot plate and the radio activity is counted in Microbia counter.
For assay [16], the target named is D(1B) dopamine receptor (Homo sapiens) (UniProt P21918).
Description: PDSP Primary Binding target: DRD5 - Compounds are tested at 10 uM concentration, plate are incubated at room temperature in the dark for 90 minutes. Reaction are stopped by vacuum filtration onto 0.3% polyethyleneimine soaked filter mats using Filtermate harvester. Scintilation cocktail is then melted onto microwave-dried filters on a hot plate and the radio activity is counted in Microbia counter.
Assay [17] concerns the target D(2) dopamine receptor (Homo sapiens) (UniProt P14416).
Description: PDSP Primary Binding target: DRD2 - Compounds are tested at 10 uM concentration, plate are incubated at room temperature in the dark for 90 minutes. Reaction are stopped by vacuum filtration onto 0.3% polyethyleneimine soaked filter mats using Filtermate harvester. Scintilation cocktail is then melted onto microwave-dried filters on a hot plate and the radio activity is counted in Microbia counter.
For assay [18], the target named is Delta-type opioid receptor (Homo sapiens) (UniProt P41143).
Delta-type opioid receptor (Homo sapiens), sequence (P41143 whole entry): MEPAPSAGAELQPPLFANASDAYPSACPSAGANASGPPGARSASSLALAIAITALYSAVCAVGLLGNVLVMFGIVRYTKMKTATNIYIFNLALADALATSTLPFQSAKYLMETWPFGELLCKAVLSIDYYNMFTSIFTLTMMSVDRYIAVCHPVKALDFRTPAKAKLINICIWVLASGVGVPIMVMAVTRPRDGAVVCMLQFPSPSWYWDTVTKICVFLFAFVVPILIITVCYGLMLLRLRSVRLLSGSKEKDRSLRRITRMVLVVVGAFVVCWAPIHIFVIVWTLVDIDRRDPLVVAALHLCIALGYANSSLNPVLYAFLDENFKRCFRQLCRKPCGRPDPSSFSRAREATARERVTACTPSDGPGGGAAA
Description: PDSP Primary Binding target: OPRD1 - Compounds are tested at 10 uM concentration, plate are incubated at room temperature in the dark for 90 minutes. Reaction are stopped by vacuum filtration onto 0.3% polyethyleneimine soaked filter mats using Filtermate harvester. Scintilation cocktail is then melted onto microwave-dried filters on a hot plate and the radio activity is counted in Microbia counter.

D(2) dopamine receptor (Homo sapiens), sequence (P14416 whole entry): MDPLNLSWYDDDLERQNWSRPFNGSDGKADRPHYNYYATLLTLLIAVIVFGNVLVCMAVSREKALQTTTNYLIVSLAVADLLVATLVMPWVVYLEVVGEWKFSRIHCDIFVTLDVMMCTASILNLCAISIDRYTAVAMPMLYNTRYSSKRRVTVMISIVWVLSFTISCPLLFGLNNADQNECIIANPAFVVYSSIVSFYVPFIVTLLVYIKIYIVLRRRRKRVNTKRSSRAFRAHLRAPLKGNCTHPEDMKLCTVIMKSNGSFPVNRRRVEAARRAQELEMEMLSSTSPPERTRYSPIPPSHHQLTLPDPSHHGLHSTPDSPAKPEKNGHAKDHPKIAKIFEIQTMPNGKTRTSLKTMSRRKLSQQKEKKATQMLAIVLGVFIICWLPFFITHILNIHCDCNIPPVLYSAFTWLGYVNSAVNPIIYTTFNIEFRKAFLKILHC
5-hydroxytryptamine receptor 1B (Homo sapiens), sequence (P28222 whole entry): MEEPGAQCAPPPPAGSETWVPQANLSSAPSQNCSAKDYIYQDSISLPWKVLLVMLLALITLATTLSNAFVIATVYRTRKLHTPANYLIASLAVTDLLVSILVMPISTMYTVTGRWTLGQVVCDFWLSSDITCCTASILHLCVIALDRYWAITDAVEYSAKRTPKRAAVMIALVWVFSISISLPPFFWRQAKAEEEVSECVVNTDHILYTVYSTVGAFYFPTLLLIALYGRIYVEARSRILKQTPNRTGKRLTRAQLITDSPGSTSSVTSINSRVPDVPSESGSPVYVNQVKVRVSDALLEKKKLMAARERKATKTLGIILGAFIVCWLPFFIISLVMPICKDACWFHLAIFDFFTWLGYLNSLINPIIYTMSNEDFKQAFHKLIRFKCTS
5-hydroxytryptamine receptor 6 (Homo sapiens), sequence (P50406 whole entry): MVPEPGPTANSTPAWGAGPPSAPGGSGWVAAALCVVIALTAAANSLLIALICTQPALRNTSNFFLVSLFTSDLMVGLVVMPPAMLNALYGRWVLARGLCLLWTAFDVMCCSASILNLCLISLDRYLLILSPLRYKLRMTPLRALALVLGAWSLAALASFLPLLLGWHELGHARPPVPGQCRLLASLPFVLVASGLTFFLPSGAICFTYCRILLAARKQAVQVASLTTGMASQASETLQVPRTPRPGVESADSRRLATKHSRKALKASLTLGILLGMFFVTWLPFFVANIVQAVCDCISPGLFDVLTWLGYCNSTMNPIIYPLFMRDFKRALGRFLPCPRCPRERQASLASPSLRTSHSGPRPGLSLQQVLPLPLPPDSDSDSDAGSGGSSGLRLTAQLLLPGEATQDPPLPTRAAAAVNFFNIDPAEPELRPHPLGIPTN
Sigma non-opioid intracellular receptor 1 (Homo sapiens), sequence (Q99720 whole entry): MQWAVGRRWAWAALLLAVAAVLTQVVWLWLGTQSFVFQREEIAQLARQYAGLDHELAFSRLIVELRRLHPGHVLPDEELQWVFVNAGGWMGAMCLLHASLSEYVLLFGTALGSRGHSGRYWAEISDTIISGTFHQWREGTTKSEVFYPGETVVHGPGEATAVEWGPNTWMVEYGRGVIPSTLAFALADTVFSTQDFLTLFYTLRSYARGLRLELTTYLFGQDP
Histamine H3 receptor (Homo sapiens), sequence (Q9Y5N1 whole entry): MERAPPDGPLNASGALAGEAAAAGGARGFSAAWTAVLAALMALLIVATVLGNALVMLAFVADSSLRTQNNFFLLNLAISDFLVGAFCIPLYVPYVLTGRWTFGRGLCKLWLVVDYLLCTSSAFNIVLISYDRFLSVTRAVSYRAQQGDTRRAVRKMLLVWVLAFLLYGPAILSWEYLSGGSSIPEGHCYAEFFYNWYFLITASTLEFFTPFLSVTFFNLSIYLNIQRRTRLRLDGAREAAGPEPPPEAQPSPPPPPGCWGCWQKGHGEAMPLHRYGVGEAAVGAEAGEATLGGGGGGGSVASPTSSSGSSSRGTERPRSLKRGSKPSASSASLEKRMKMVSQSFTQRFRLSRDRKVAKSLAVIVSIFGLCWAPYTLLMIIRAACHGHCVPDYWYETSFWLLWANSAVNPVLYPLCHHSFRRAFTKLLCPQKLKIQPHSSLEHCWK
D(1A) dopamine receptor (Homo sapiens), sequence (P21728 whole entry): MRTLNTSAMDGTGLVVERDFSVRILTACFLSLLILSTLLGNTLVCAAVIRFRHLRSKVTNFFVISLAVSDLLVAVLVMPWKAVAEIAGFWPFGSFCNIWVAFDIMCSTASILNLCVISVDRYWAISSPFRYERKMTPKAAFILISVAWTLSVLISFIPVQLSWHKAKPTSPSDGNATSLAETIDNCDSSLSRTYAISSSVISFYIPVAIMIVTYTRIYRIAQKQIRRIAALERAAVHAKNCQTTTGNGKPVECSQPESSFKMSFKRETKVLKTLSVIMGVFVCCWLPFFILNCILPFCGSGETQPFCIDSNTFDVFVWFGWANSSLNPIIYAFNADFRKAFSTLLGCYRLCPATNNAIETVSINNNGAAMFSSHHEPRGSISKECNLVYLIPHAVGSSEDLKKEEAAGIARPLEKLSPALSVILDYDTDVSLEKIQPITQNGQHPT
Beta-1 adrenergic receptor (Homo sapiens), sequence (P08588 whole entry, looked up): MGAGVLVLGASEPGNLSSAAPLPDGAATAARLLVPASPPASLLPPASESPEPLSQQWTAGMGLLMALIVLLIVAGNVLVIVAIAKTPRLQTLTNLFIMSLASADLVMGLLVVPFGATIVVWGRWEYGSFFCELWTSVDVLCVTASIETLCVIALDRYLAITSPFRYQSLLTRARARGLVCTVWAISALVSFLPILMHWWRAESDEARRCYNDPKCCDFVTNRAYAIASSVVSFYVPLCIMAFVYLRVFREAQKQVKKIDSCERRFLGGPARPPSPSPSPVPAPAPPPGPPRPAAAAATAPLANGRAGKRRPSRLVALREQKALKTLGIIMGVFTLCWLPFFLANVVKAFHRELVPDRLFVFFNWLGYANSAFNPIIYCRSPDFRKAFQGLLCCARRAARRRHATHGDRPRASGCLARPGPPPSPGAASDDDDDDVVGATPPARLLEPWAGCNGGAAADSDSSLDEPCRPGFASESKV
Kappa-type opioid receptor (Homo sapiens), sequence (P41145 whole entry): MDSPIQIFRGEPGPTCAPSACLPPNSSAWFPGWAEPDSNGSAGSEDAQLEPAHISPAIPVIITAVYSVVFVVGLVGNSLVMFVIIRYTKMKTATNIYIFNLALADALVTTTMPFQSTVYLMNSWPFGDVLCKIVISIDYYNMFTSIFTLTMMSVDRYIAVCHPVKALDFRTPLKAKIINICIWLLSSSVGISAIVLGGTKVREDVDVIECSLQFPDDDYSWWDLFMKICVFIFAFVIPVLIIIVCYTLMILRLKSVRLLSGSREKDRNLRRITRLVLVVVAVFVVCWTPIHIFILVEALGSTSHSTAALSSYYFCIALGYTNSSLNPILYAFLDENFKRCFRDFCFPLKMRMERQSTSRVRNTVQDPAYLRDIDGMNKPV
Translocator protein (Homo sapiens), sequence (P30536 whole entry): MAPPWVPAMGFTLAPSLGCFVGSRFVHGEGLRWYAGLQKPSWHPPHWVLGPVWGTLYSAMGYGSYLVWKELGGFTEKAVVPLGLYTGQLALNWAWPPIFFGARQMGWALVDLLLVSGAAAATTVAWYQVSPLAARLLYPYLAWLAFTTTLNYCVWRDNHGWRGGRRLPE
5-hydroxytryptamine receptor 2A (Homo sapiens), sequence (P28223 whole entry): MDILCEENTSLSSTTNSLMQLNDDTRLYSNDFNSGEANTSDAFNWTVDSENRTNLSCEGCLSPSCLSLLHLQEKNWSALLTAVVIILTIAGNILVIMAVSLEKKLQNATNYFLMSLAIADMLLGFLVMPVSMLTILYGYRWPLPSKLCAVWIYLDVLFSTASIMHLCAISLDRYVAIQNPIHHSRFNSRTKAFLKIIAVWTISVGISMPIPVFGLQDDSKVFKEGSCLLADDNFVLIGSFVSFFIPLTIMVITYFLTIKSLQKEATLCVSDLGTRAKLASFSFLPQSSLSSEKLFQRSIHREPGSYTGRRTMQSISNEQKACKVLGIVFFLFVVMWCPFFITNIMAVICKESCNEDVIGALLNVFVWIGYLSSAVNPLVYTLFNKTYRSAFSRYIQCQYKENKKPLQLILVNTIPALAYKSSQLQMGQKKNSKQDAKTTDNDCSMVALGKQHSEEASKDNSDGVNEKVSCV
Sigma intracellular receptor 2 (Homo sapiens), sequence (Q5BJF2 whole entry): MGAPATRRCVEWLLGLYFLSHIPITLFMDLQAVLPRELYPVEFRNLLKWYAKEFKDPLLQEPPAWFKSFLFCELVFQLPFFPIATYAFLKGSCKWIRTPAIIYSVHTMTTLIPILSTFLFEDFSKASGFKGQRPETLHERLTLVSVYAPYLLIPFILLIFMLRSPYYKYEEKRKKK
5-hydroxytryptamine receptor 1E (Homo sapiens), sequence (P28566 whole entry): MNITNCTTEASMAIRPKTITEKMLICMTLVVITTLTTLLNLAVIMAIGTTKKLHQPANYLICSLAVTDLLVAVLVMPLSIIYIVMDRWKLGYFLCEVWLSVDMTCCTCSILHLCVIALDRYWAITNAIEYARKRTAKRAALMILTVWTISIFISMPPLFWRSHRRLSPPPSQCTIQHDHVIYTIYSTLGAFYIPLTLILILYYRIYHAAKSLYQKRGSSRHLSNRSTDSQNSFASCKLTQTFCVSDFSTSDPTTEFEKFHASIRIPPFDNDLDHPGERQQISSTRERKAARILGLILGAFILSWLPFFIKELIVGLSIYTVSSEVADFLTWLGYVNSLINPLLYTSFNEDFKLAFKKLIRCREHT

One may read the inhibition as the relative decrease from the control value, in per cent. Consider `N#Cc1c(N)nc(SCc2csc(-c3ccc(Cl)cc3)n2)c(C#N)c1-c1ccc(OCCO)cc1`, for which the inhibition in assay [1] is 5.12%; in assay [2], 6.84%; in assay [3] it was 3.52%; in [4] it was 1.79%; in assay [5], 57.6%; in assay [6], 18.4%. Besides, the inhibition was -8.5% in assay [7]; 3.33% in assay [8]; 36.6% in [9]; 11.3% in assay [10]; -9.34% in assay [11]; 26.8% in assay [12]. For the same compound, the inhibition in assay [13] is 13%; in assay [14], 39%.

`CC(C)(C(=O)O)c1ccc(C(O)CCCN2CCC(C(O)(c3ccccc3)c3ccccc3)CC2)cc1` (stereo unspecified): the inhibition was -3.95% in [1]; -8.41% in assay [15]; -7.6% in assay [3]; -4.11% in assay [5]; 18.3% in assay [16]; 4.24% in [8]. Also, the inhibition in assay [9] is 39.2%; in [10], 28.9%; in [17] it was 65.8%; in assay [11], -8.04%; in [13], 8.43%; in assay [14] it was 35.9%.

`C[C@]1(C(=O)N(CCCC(=O)O)Cc2cccc(Cl)c2)CCN1C(=O)c1csc2ccccc12`: the inhibition in assay [1] was -8.42%; in assay [2] it was -4.07%; in assay [15], 3.68%; in [18], -1.78%; in assay [4], -7.18%; in assay [5] it was 5.72%. The inhibition in [6] was 5.34%; in assay [7] it was -5.78%; in assay [16] it was -8.24%; in assay [9] it was -7.28%; in assay [10] it was -1.97%; in [17] it was -7.68%. Also, the results for the inhibition in assay [11], in assay [12] and in assay [14] were -8.85%, 1.62% and 32.5%, respectively.

As to `O=C1N/C(=N/c2ccccc2F)S/C1=C\c1ccc(C(=O)O)cc1`, the inhibition in assay [1] is -4.18%; in assay [2] it was -2.85%; in [15] it was 24.9%; in assay [18], -1.84%; in assay [3], 2.98%; in assay [4] it was -3.21%. Also, the inhibition in assay [5] was 4.31%; in assay [6] it was -0.36%; in [16], 6.76%; in assay [9], 33.9%; in assay [17] it was 0.9%; in assay [11], 4.25%. The inhibition is 9.47% in assay [12], -8.69% in assay [13] and 17.9% in assay [14].

Regarding `CCC(=O)NCC[C@@H]1CCc2ccc3c(c21)CCO3`, the inhibition was -9.5% in assay [2]; -5.97% in assay [18]; -9.25% in [3]; 6.73% in assay [4]; 27.6% in assay [5]; 6.79% in [6]. Further, the inhibition in assay [7] is 14.2%; in assay [16], -3.26%; in [8], 12.4%; in assay [9], 47.4%; in [10], -1.3%; in assay [17], 2.72%. Moreover, the inhibition in [11] is -5.33%; in assay [12], 28.5%; in assay [13], 15.8%; in assay [14] it was 89.6%.

For `CCCn1c(=O)c2nc(C34CC5CC(CC3C5)C4)[nH]c2n(CCC)c1=O`, the inhibition in [1] is -9.29%; in [15] it was -4.94%; in assay [18] it was 11.3%; in [3], 9.01%; in assay [4] it was -9.26%; in assay [5], 25.5%. Moreover, the inhibition in assay [6] was -7.63%; in [7], 4.62%; in assay [16], 23.9%; in assay [8] it was 5.98%; in assay [9] it was 39.6%; in assay [11], 14.2%. Also, the values for the inhibition in assay [13] and in assay [14] were 19.3% and 32.7%, respectively.

With `O=C(O)COc1cccc(CN(Cc2ccc(-n3cccn3)cc2)S(=O)(=O)c2cccnc2)c1`, the inhibition was 6.23% in assay [1]; -1.12% in assay [2]; -0.81% in assay [15]; 22.4% in [18]; -2.57% in assay [3]; 11.1% in [5]. Also, the inhibition in [6] was 15.6%; in assay [7], -1.11%; in assay [16], 2.14%; in assay [9], 4.27%; in assay [17], 7.85%; in [11], 14.9%. Also, the inhibition is 12.1% in [13] and 5.04% in assay [14].

In the case of `CCc1nn2c(C)cc(C)nc2c1Cc1ccc(-c2nnc(C3CCNCC3)o2)cc1`, the inhibition in [1] was -8.3%; in [2], -9.75%; in assay [15], 14.4%; in assay [18], -1.19%; in assay [3], 31.1%; in assay [4], 93.4%. Besides, the inhibition in [6] is -2.43%; in assay [7], 4.27%; in assay [16], 6.13%; in [8] it was 5.87%; in [9] it was 80.3%; in assay [17], -9.55%. Further, the inhibition in assay [11] was 12.6%; in [12] it was -6.08%; in assay [13], 16.6%; in assay [14], 52.4%.

As to `Brc1c(NC2=NCCN2)ccc2nccnc12`, the inhibition is 34% in assay [2]; -2.59% in assay [15]; 1.24% in assay [18]; 75.6% in [3]; -5.05% in assay [4]; -7.41% in assay [5]. Also, the inhibition in assay [16] was 34.9%; in [8], 69.9%; in assay [9] it was 66.9%; in assay [17], 12.5%; in [12], 23.8%; in assay [13] it was 7.31%.

As for `Clc1cccc(Cl)c1NC1=NCCN1`, the inhibition in [2] is 69%; in assay [18], -4.61%; in assay [3] it was 84.7%; in [4] it was 5.96%; in [5], 10.8%; in [7], 11.2%. The inhibition in assay [8] was 77.2%; in assay [9] it was 66.3%; in assay [11], 9.4%; in assay [12] it was 31.6%; in assay [13], 13.1%.

As for `CNC[C@H](O)c1ccc(O)c(O)c1`, the inhibition in assay [2] is 6.21%; in assay [18], 6.63%; in [3], 66.7%; in assay [5], -0.39%; in [16], -3.14%; in assay [8] it was -8.3%. Moreover, the inhibition in [9] is 12.3%; in assay [10], 10.9%; in assay [17] it was 15.9%; in [11], -5.3%; in assay [12], 37%; in [13] it was 11.1%.
